Assay: Phase 1b safety and tolerability of HBI-8000 combined with nivolumab (DLTs, TEAEs)
Assay type: in vivo
Details: for Dose-limiting toxicity (DLT): + nivolumab, 28 days
Protocol: The present example, was a Phase Ib/2 open-label dose finding study for HBI-8000 (also referred to in the art as “chidamide” or “tucidinostat” and also referred to herein as a compound of formula I) in combination with nivolumab in patients with advanced solid tumors, including melanoma, RCC (renal cell carcinoma), and NSCLC (non-small cell lung cancer). This study was conducted in accordance with Good Clinical Practice guidelines and the Declaration of Helsinki and with assurance/approval from the US Department of Health and Human Services; the protocol was approved by the institutional review boards or ethics committees of all participating sites. All patients provided written informed consent to participate before enrollment. […]
HBI-8000 at three dose levels (20 mg, 30 mg, and 40 mg) given orally twice a week (BIW) were evaluated. Doses were taken approximate 30 minutes after a meal. The starting dose (20 mg) was selected based on pharmacokinetic profiles established for monotherapy in Japanese patients with T-cell lymphoma.
The decision to escalate the dose was based on the conventional 3+3 design and observed incidences of dose-limiting toxicities (DLTs). Each treatment cycle was defined as 28 days. […] Subjects experiencing DLT within the first two weeks after having received 100% of assigned dose of HBI-8000 are also evaluable for DLT. Unacceptable toxicities were defined as grade 3 or higher non-hematologic and hematologic toxicities with clinical complications. Unacceptable toxicities observed over the first 28 days following HBI-8000 administration were considered as DLTs. […] HBI-8000 administration continued until disease progression or unacceptable toxicity was observed. The efficacy of the combination was further evaluated in an expanded cohort of selected patient populations at RP2D based on an objective response rate according to Response Evaluation Criteria in Solid Tumors (RECIST) version 1.1 criteria, progression-free survival, and duration of responses.
Safety evaluations included physical examinations, vital signs, ECGs, ECOG performance status, and laboratory tests.
Statistical analyses of safety, tolerability, and anti-tumor activity were primarily descriptive in nature. Toxicities were tabulated by type and grade. The safety population included all patients who received ≥1 dose of HBI-8000 and nivolumab. Continuous variables were summarized using descriptive statistics and categorical variables were summarized with number and percentage at each category. Pharmacokinetic parameters were derived using noncompartmental methods with Phoenix® WinNonlin® Version 6.4 (Certara, L. P., Princeton, NJ, USA).

[1] = 40 mg HBI-8000 BIW + nivolumab, N = 7
[2] = 20, 30 and 40 mg HBI-8000 + nivolumab, N = 17

Nc1cc(F)ccc1NC(=O)c1ccc(CNC(=O)/C=C/c2cccnc2)cc1 [HBI-8000, N-(2-amino-4-fluorophenyl)-4-[[[(2E)-1-oxo-3-(3-pyridinyl)-2-propen-1-yl]amino]methyl]benzamide]
Any SAE, number of subjects [1]: 4 n | Any TEAE, number of subjects [1]: 7 n | Aspartate aminotransferase increased, All, G < 3 [1]: 1 (14) n (%) | Aspartate aminotransferase increased, Related Both, Any G [1]: 1 (14) n (%) | Atrial fibrillation, All, G < 3 [1]: 2 (29) n (%) | Atrial fibrillation, All, G ≥ 3 [1]: 1 (14) n (%) | Atrial fibrillation, Related Both, Any G [1]: 1 (14) n (%) | Contusion, All, G < 3 [1]: 3 (43) n (%) | Contusion, Related Both, Any G [1]: 2 (29) n (%) | Contusion, Related HBI, Any G [1]: 1 (14) n (%) | Decreased appetite, All, G < 3 [1]: 3 (43) n (%) | Decreased appetite, All, G ≥ 3 [1]: 1 (14) n (%) | Decreased appetite, Related Both, Any G [1]: 1 (14) n (%) | Decreased appetite, Related HBI, Any G [1]: 2 (29) n (%) | Dehydration, All, G < 3 [1]: 2 (29) n (%) | Diarrhoea, All, G < 3 [1]: 2 (29) n (%) | Diarrhoea, All, G ≥ 3 [1]: 1 (14) n (%) | Diarrhoea, Related Both, Any G [1]: 2 (29) n (%) | Diarrhoea, Related HBI, Any G [1]: 1 (14) n (%) | Dizziness, All, G < 3 [1]: 2 (29) n (%) | Dizziness, Related Both, Any G [1]: 1 (14) n (%) | Dizziness, Related HBI, Any G [1]: 1 (14) n (%) | Dyspnoea, All, G < 3 [1]: 3 (43) n (%) | Dyspnoea, All, G ≥ 3 [1]: 1 (14) n (%) | Dyspnoea, Related Both, Any G [1]: 1 (14) n (%) | Fall, All, G < 3 [1]: 2 (29) n (%) | Fatigue, All, G < 3 [1]: 2 (29) n (%) | Fatigue, All, G ≥ 3 [1]: 2 (29) n (%) | Fatigue, Related Both, Any G [1]: 2 (29) n (%) | Fatigue, Related HBI, Any G [1]: 1 (14) n (%) | Headache, All, G < 3 [1]: 1 (14) n (%) | Headache, All, G ≥ 3 [1]: 1 (14) n (%) | Headache, Related Both, Any G [1]: 1 (14) n (%) | Headache, Related HBI, Any G [1]: 1 (14) n (%) | Hypocalcaemia, All, G < 3 [1]: 2 (29) n (%) | Hypocalcaemia, Related Both, Any G [1]: 1 (14) n (%) | Hypocalcaemia, Related HBI, Any G [1]: 1 (14) n (%) | Hypokalemia, All, G < 3 [1]: 1 (14) n (%) | Hypokalemia, Related Both, Any G [1]: 1 (14) n (%) | Hypophosphataemia, All, G < 3 [1]: 2 (29) n (%) | Hypophosphataemia, Related Both, Any G [1]: 1 (14) n (%) | Hypophosphataemia, Related HBI, Any G [1]: 1 (14) n (%) | Hypotension, All, G < 3 [1]: 3 (43) n (%) | Hypotension, Related Both, Any G [1]: 1 (14) n (%) | Lipase increased, All, G < 3 [1]: 1 (14) n (%) | Lipase increased, Related Both, Any G [1]: 1 (14) n (%) | Lymphocyte count decreased, All, G < 3 [1]: 2 (29) n (%) | Lymphocyte count decreased, Related Both, Any G [1]: 2 (29) n (%) | Nausea, All, G < 3 [1]: 3 (43) n (%) | Nausea, Related Both, Any G [1]: 2 (29) n (%) | Nausea, Related HBI, Any G [1]: 2 (29) n (%) | Neutrophil count decreased, All, G < 3 [1]: 2 (29) n (%) | Neutrophil count decreased, All, G ≥ 3 [1]: 1 (14) n (%) | Neutrophil count decreased, Related Both, Any G [1]: 1 (14) n (%) | Neutrophil count decreased, Related HBI, Any G [1]: 1 (14) n (%) | Non-cardiac chest pain, All, G < 3 [1]: 2 (29) n (%) | Non-cardiac chest pain, Related HBI, Any G [1]: 1 (14) n (%) | Oedema peripheral, All, G < 3 [1]: 2 (29) n (%) | Oedema peripheral, Related Both, Any G [1]: 1 (14) n (%) | Platelet count decreased, All, G < 3 [1]: 3 (43) n (%) | Platelet count decreased, Related Both, Any G [1]: 1 (14) n (%) | Platelet count decreased, Related HBI, Any G [1]: 2 (29) n (%) | Pleural effusion, All, G < 3 [1]: 2 (29) n (%) | SAE related to HBI-8000 & Nivolumab, number of subjects [1]: 0 n | SAE related to HBI-8000 alone, number of subjects [1]: 0 n | TEAE related to HBI-8000 & Nivolumab, number of subjects [1]: 3 n | TEAE related to HBI-8000 alone, number of subjects [1]: 6 n | TEAE resulting in discontinuation of HBI-8000 alone, number of subjects [1]: 2 n | TEAE resulting in discontinuation of both HBI-8000 and Nivo, number of subjects [1]: 2 n | Vomiting, All, G < 3 [1]: 2 (29) n (%) | Vomiting, Related Both, Any G [1]: 2 (29) n (%) | Weight decreased, All, G < 3 [1]: 1 (14) n (%) | Weight decreased, Related Both, Any G [1]: 1 (14) n (%) | White blood cell count decreased, All, G < 3 [1]: 3 (43) n (%) | White blood cell count decreased, Related Both, Any G [1]: 1 (14) n (%) | White blood cell count decreased, Related HBI, Any G [1]: 2 (29) n (%) | Incidence of TEAE related to HBI-8000 alone versus dose (20, 30, 40 mg BIW + nivolumab): appeared to increase with escalating HBI-8000 dose | Alanine aminotransferase increased, Total [2]: 4 (24) n (%) | Anaemia, Total [2]: 8 (47) n (%) | Aspartate aminotransferase increased, Total [2]: 4 (24) n (%) | Atrial fibrillation, Total [2]: 4 (24) n (%) | Back pain, Total [2]: 4 (24) n (%) | Contusion, Total [2]: 4 (24) n (%) | Decreased appetite, Total [2]: 9 (53) n (%) | Dehydration, Total [2]: 5 (29) n (%) | Diarrhoea, Total [2]: 7 (41) n (%) | Dizziness, Total [2]: 5 (29) n (%) | Dyspnoea, Total [2]: 9 (53) n (%) | Fall, Total [2]: 4 (24) n (%) | Fatigue, Total [2]: 10 (59) n (%) | Headache, Total [2]: 4 (24) n (%) | Hypocalcaemia, Total [2]: 6 (35) n (%) | Hypokalemia, Total [2]: 5 (29) n (%) | Hypophosphataemia, Total [2]: 5 (29) n (%) | Hypotension, Total [2]: 5 (29) n (%) | Hypoxia, Total [2]: 4 (24) n (%) | Lipase increased, Total [2]: 5 (29) n (%) | Lymphocyte count decreased, Total [2]: 5 (29) n (%) | Nausea, Total [2]: 8 (47) n (%) | Neutrophil count decreased, Total [2]: 4 (24) n (%) | Non-cardiac chest pain, Total [2]: 4 (24) n (%) | Oedema peripheral, Total [2]: 7 (41) n (%) | Platelet count decreased, Total [2]: 7 (41) n (%) | Pleural effusion, Total [2]: 5 (29) n (%) | Vomiting, Total [2]: 4 (24) n (%) | Weight decreased, Total [2]: 7 (41) n (%) | White blood cell count decreased, Total [2]: 5 (29) n (%) | Dose-limiting toxicity (DLT) (20-mg dose cohort, 3 DLT-evaluable patients): None | Dose-limiting toxicity (DLT) (30-mg BIW dose cohort, 3 + 3 DLT-evaluable patients): None and No DLT | Patients with DLT: Grade 3 fatigue on days of HBI-8000 administration (40-mg cohort, 6 DLT-evaluable patients, RCC patient): 1 patient | Patients with DLT: Grade 3 headache after first dose and grade 3 diarrhea after third dose (40-mg cohort, 6 DLT-evaluable patients, melanoma patient): 1 patient | Any SAE, number of subjects (Total, all dose levels, N = 17): 11 n | Any TEAE, number of subjects (Total, all dose levels, N = 17): 17 n | TEAE related to HBI-8000 & Nivolumab, number of subjects (Total, all dose levels, N = 17): 11 n | TEAE related to HBI-8000 alone, number of subjects (Total, all dose levels, N = 17): 10 n | TEAE resulting in discontinuation of HBI-8000 alone, number of subjects (Total, all dose levels, N = 17): 5 n | TEAE resulting in discontinuation of both HBI-8000 and Nivo, number of subjects (Total, all dose levels, N = 17): 3 n | Patients who died of TEAE (unrelated to HBI-8000 or nivolumab) (all dose levels, N = 17): One | Patients with Grade 3 or higher TEAEs (all dose levels, N = 17): 15 patients | Patients with only Grade 1 and 2 TEAEs (all dose levels, N = 17): Two | Subjects with TEAEs attributed to the combination and TEAEs associated with HBI-8000 alone (all dose levels, N = 17): Six | Recommended phase II dose (RP2D) (in combination with nivolumab): 30 mg BIW | Maximum tolerated dose (MTD) (oral BIW in combination with nivolumab): < 40 mg

Reference: patent publication US20240252474A1, “METHODS AND COMPOSITIONS COMPRISING A CARDIO-TOLERATED HDAC INHIBITOR” (HUYABIO International, LLC, priority 2023, published 2024)
